Laboratory results published in ChEMBL document CHEMBL1137205, “Rational approaches to discovery of orally active and brain-penetrable quinazolinone inhibitors of poly(ADP-ribose)polymerase” (J Med Chem, 2004).

Legend:
[1] = Concentration in brain tissue was measured at 2 hrs in mice following po administration of 32 mg/kg; assay type: ADME, organism-based; set-up: dose 32 mg/kg, route oral; conditions: mouse
[2] = Concentration in plasma was measured at 2 hrs in mice following po administration of 32 mg/kg; assay type: ADME, organism-based; set-up: dose 32 mg/kg, route oral; conditions: mouse
[3] = molecular target: Poly [ADP-ribose] polymerase 1 (Homo sapiens, UniProt P09874); assay: In vitro inhibitory concentration against human recombinant Poly (ADP-ribose) polymerase 1
Sequence of Poly [ADP-ribose] polymerase 1 (P09874 whole entry): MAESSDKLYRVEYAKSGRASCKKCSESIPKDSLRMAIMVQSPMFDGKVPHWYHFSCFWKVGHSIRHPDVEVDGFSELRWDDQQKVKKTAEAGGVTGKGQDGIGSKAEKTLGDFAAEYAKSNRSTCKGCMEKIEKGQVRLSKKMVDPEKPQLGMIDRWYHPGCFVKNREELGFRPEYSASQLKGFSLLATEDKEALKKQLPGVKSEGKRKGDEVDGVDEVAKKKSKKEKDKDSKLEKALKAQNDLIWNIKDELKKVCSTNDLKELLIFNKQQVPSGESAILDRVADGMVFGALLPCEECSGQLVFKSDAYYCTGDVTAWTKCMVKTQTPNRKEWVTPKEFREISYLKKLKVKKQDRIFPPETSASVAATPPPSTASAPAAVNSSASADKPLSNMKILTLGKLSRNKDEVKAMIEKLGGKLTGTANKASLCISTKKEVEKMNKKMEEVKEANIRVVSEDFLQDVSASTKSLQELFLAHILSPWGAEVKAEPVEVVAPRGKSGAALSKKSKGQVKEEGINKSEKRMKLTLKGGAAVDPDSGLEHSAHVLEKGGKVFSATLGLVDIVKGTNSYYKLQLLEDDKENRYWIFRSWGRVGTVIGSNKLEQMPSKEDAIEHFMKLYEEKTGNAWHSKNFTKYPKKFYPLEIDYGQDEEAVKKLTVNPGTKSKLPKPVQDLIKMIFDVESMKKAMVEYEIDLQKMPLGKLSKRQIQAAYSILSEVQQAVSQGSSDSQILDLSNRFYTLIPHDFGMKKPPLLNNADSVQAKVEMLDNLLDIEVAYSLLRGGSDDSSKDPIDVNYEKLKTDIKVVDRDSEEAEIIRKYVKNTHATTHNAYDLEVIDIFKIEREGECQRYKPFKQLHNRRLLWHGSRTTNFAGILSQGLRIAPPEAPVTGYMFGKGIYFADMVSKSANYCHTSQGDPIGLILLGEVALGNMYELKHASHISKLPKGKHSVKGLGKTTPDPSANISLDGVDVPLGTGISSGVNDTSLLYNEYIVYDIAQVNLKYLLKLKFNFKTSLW

[4] = Concentration in brain tissue was measured at 0.5 hrs in mice following po administration of 32 mg/kg; assay type: ADME, organism-based; set-up: dose 32 mg/kg, route oral; conditions: mouse
[5] = Concentration in plasma was measured at 0.5 hrs in mice following po administration of 32 mg/kg; assay type: ADME, organism-based; set-up: dose 32 mg/kg, route oral; conditions: mouse
[6] = Concentration in brain tissue was measured at 0.5 hrs in mice following ip administration of 32 mg/kg; assay type: ADME, organism-based; set-up: dose 32 mg/kg, route intraperitoneal; conditions: mouse
[7] = Ratio of brain tissue concentration to that of plasma concentration; assay type: ADME; conditions: mouse; for Kp: brain / plasma
[8] = Concentration in plasma was measured at 0.5 hrs in mice following ip administration of 32 mg/kg; assay type: ADME, organism-based; set-up: dose 32 mg/kg, route intraperitoneal; conditions: mouse
[9] = Bioavailability in dog after iv administration of 1.0 mg/kg; assay type: ADME, organism-based, Canis lupus familiaris; conditions: in vivo, read-out: Bioavailabiility
[10] = AUC value in rat after po administration of 10 mg/kg; assay type: ADME, organism-based, Plasma; set-up: dose 10 mg/kg, route oral; conditions: in vivo
[11] = Clearance in mouse liver microsomes when incubated at 37 degree Celsius in the presence of NADPH-generating system
[12] = Half-life in dog after iv administration of 1.0 mg/kg; assay type: ADME, organism-based, Canis lupus familiaris; set-up: dose 1 mg/kg, route intravenous; conditions: in vivo
[13] = Clearance of compound in dog after iv administration of 1.0 mg/kg; assay type: ADME, organism-based, Canis lupus familiaris; set-up: dose 1 mg/kg, route intravenous; conditions: in vivo
[14] = Clearance in rat liver microsomes when incubated at 37 degree Celsius in the presence of NADPH-generating system
[15] = Clearance in dog liver microsomes when incubated at 37 degree Celsius in the presence of NADPH-generating system
[16] = Clearance in human liver microsomes when incubated at 37 degree Celsius in the presence of NADPH-generating system
[17] = Clearance of compound in rat after iv administration of 10 mg/kg; assay type: ADME, organism-based; set-up: dose 10 mg/kg, route intravenous; conditions: in vivo
[18] = Cmax value in rat after po administration of 10 mg/kg; assay type: ADME, organism-based; set-up: dose 10 mg/kg, route oral; conditions: in vivo
[19] = Cmax value in dog after po administration of 1.0 mg/kg; assay type: ADME, organism-based, Canis lupus familiaris; set-up: dose 1 mg/kg, route oral; conditions: in vivo
[20] = Half-life in rat after iv administration of 10 mg/kg; assay type: ADME, organism-based; set-up: dose 10 mg/kg, route intravenous; conditions: in vivo
[21] = Cmax value in mouse after po administration of 10 mg/kg; assay type: ADME, organism-based; set-up: dose 10 mg/kg, route oral; conditions: in vivo
[22] = AUC value in dog after po administration of 1.0 mg/kg; assay type: ADME, organism-based, Canis lupus familiaris, Plasma; set-up: dose 1 mg/kg, route oral; conditions: in vivo
[23] = Bioavailability in rat after iv administration of 10 mg/kg; assay type: ADME, organism-based; conditions: in vivo, read-out: Bioavailabiility

Work on Cc1ccc(C2=CCN(CCCc3nc(O)c4ccccc4n3)CC2)cc1 yielded a concentration at 2 h [1] of 2340 ng/g, a concentration at 2 h [2] of 840 ng/mL and an IC50 [3] of 17 nM. The concentration at 0.5 h [4] was 5310 ng/g and the concentration at 0.5 h [5] was 5400 ng/mL.
Molecule O=c1[nH]c(CCCN2CC=C(c3ccc(Cl)cc3)CC2)nc2ccccc12 has a concentration at 2 h [1] of 9410 ng/g, a concentration at 2 h [2] of 2780 ng/mL and an IC50 [3] of 23 nM. For the same molecule, the concentration at 0.5 h [4] was 23900 ng/g and the concentration at 0.5 h [5] was 12100 ng/mL.
With Oc1nc(CCCN2CCC3=C(CCc4ccccc43)C2)nc2ccccc12 the IC50 [3] was 12 nM.
For Oc1nc(CCCN2CC=C(c3ccccc3)CC2)nc2cc(Cl)ccc12, the concentration at 2 h [1] was 2660 ng/g, the concentration at 2 h [2] was 510 ng/mL and the IC50 [3] was 250 nM. The concentration at 0.5 h [4] was 6120 ng/g and the concentration at 0.5 h [5] was 80 ng/mL.
In the case of O=c1[nH]c(=O)n(CCCCN2CC=C(c3ccccc3)CC2)c2cccc(F)c12, the concentration at 0.5 h [6] is reported as 600 ng/g, the Kp [7] is reported as 0.86 and the concentration at 0.5 h [8] is reported as 700 ng/mL.
Oc1nc(CCCN2CC=C(c3ccccc3)CC2)nc2ccc(Cl)cc12 showed a concentration at 2 h [1] of 14200 ng/g, a concentration at 2 h [2] of 15500 ng/mL and an IC50 [3] of 27 nM. The concentration at 0.5 h [4] was 18600 ng/g and the concentration at 0.5 h [5] was 16200 ng/mL.
Molecule O=c1[nH]c(CCCN2CC=C(c3ccc(F)cc3)CC2)nc2c(Cl)cccc12 has a bioavailability [9] of 70%, an AUC [10] of 2.52 µg/h/mL and a CLint scaled [11] of 2250 mL/min/kg. The half-life [12] was 6 h, the concentration at 2 h [1] was 2100 ng/g and the clearance [13] was 4.8 mL/min/kg. The CLint scaled [14] was 1240 mL/min/kg, the concentration at 2 h [2] was 500 ng/mL and the IC50 [3] was 13 nM. The CLint scaled [15] was 141 mL/min/kg, the CLint scaled [16] was 156 mL/min/kg and the concentration at 0.5 h [4] was 5600 ng/g. For the same molecule, the Kp [7] was 5.6, the Ratio ([7]; plasma) was 4.2 and the clearance [17] was 13.5 mL/min/kg. The Cmax [18] was 1330 ng/mL, the Cmax [19] was 280 ng/mL and the half-life [20] was 1.4 h. It also gave a Cmax [21] of 300 ng/mL, a concentration at 0.5 h [5] of 1000 ng/mL and an AUC [22] of 3.16 µg/h/mL. It also gave a bioavailability [23] of 20%.
Work on O=c1[nH]c(CCCN2CC=C(c3ccc(C(F)(F)F)cc3)CC2)nc2ccccc12 yielded a concentration at 2 h [1] of 19500 ng/g, a concentration at 2 h [2] of 3270 ng/mL and an IC50 [3] of 25 nM. It also gave a concentration at 0.5 h [4] of 23400 ng/g and a concentration at 0.5 h [5] of 6800 ng/mL.
Work on Oc1nc(CCCN2CC=C(c3ccccc3F)CC2)nc2ccccc12 yielded an IC50 [3] of 37 nM.
With Oc1nc(CCCN2CC=C(c3ccc(-[n+]4ccccc4)cc3)CC2)nc2ccccc12 the concentration at 2 h [1] was 300 ng/g, the concentration at 2 h [2] was 620 ng/mL and the IC50 [3] was 12 nM. For the same molecule, the concentration at 0.5 h [4] was 2760 ng/g and the concentration at 0.5 h [5] was 14100 ng/mL.
COc1ccccc1C1=CCN(CCCc2nc(O)c3ccccc3n2)CC1 gave an IC50 [3] of 170 nM.
For Cc1nc2cccc(Cl)c2c(=O)[nH]1, the concentration at 0.5 h [6] was 5500 ng/g, the Kp [7] was 0.82 and the concentration at 0.5 h [8] was 6700 ng/mL.
For O=c1[nH]c(CCCN2CC=C(c3ccccc3)CC2)nc2c(Cl)cc(Cl)cc12, the IC50 [3] was 39 nM.
With O=c1[nH]c(CCCN2CC=C(c3ccccc3)CC2)nc2c(Cl)cccc12 the concentration at 2 h [1] was 8430 ng/g, the concentration at 2 h [2] was 1200 ng/mL and the IC50 [3] was 26 nM. The concentration at 0.5 h [4] was 7990 ng/g and the concentration at 0.5 h [5] was 1280 ng/mL.
O=c1[nH]c(CCCN2CC=C(c3ccc(O)cc3)CC2)nc2ccccc12 showed an IC50 [3] of 12 nM.
Oc1nc(CCCN2CC=C(c3ccccc3)CC2)nc2cccc(F)c12 gave a concentration at 2 h [1] of 220 ng/g, a concentration at 2 h [2] of 140 ng/mL and a concentration at 0.5 h [4] of 1620 ng/g. The concentration at 0.5 h [5] was 370 ng/mL.
For O=c1[nH]c(CCCN2CC=C(c3ccccc3)CC2)nc2ccccc12, the concentration at 2 h [1] was 370 ng/g, the concentration at 2 h [2] was 150 ng/mL and the IC50 [3] was 16 nM. The concentration at 0.5 h [4] was 1900 ng/g and the concentration at 0.5 h [5] was 680 ng/mL.
With COc1ccc(C2=CCN(CCCc3nc(O)c4ccccc4n3)CC2)cc1 the concentration at 2 h [1] was 3750 ng/g, the concentration at 2 h [2] was 1670 ng/mL and the IC50 [3] was 8.3 nM. For the same molecule, the concentration at 0.5 h [4] was 5610 ng/g and the concentration at 0.5 h [5] was 6050 ng/mL.
With Oc1nc(CCCN2CCc3c([nH]c4ccccc34)C2)nc2ccccc12 the concentration at 2 h [1] was 150 ng/g, the concentration at 2 h [2] was 9510 ng/mL and the IC50 [3] was 74 nM. It also gave a concentration at 0.5 h [4] of 580 ng/g and a concentration at 0.5 h [5] of 77200 ng/mL.
Work on O=c1[nH]c(CCCN2CC=C(c3ccccc3)CC2)nc2cccc(Cl)c12 yielded a concentration at 0.5 h [6] of 7000 ng/g, a concentration at 2 h [1] of 2820 ng/g and a concentration at 2 h [2] of 2170 ng/mL. For the same molecule, the IC50 [3] was 65 nM, the concentration at 0.5 h [4] was 4600 ng/g and the Kp [7] was 5.8. For the same molecule, the concentration at 0.5 h [5] was 4180 ng/mL and the concentration at 0.5 h [8] was 1200 ng/mL.
COc1cccc2c(=O)[nH]c(CCCN3CC=C(c4ccccc4)CC3)nc12 gave an IC50 [3] of 26 nM, a concentration at 0.5 h [4] of 1150 ng/g and a concentration at 0.5 h [5] of 240 ng/mL.
O=c1[nH]c(CCCN2CC=C(c3cccc(F)c3)CC2)nc2ccccc12 gave an IC50 [3] of 23 nM.
Work on N#Cc1ccc(C2=CCN(CCCc3nc(O)c4ccccc4n3)CC2)cc1 yielded a concentration at 2 h [1] of 540 ng/g, a concentration at 2 h [2] of 5200 ng/mL and an IC50 [3] of 6 nM. The concentration at 0.5 h [4] was 4500 ng/g and the concentration at 0.5 h [5] was 20000 ng/mL.
With Oc1nc(CCCN2CC=C(c3ccc(-c4ccccc4)cc3)CC2)nc2ccccc12 the IC50 [3] was 34 nM.
Molecule Cc1cccc2c(=O)[nH]c(CCCN3CC=C(c4ccccc4)CC3)nc12 has a concentration at 2 h [1] of 730 ng/g, a concentration at 2 h [2] of 400 ng/mL and an IC50 [3] of 14 nM. It also gave a concentration at 0.5 h [4] of 2540 ng/g and a concentration at 0.5 h [5] of 940 ng/mL.
CCc1cccc2c(O)nc(CCCN3CC=C(c4ccccc4)CC3)nc12 gave an IC50 [3] of 66 nM.
With Oc1nc(CCCN2CCN(c3ccccc3)CC2)nc2ccccc12 the concentration at 2 h [1] was 300 ng/g, the concentration at 2 h [2] was 530 ng/mL and the concentration at 0.5 h [4] was 2850 ng/g. The concentration at 0.5 h [5] was 2270 ng/mL.
In the case of O=c1[nH]c(CCCN2CC=C(c3ccc(F)cc3)CC2)nc2ccccc12, the concentration at 2 h [1] is reported as 1160 ng/g, the concentration at 2 h [2] is reported as 3480 ng/mL and the IC50 [3] is reported as 8.9 nM. It also gave a concentration at 0.5 h [4] of 3540 ng/g and a concentration at 0.5 h [5] of 6830 ng/mL.
Work on O=c1[nH]c(CCCN2CCC(c3ccccc3)CC2)nc2ccccc12 yielded a concentration at 2 h [1] of 100 ng/g, an IC50 [3] of 46 nM and a concentration at 0.5 h [4] of 370 ng/g. For the same molecule, the concentration at 0.5 h [5] was 250 ng/mL.
O=c1[nH]c(CCCC2CC=C(c3ccccc3)CC2)nc2ccccc12 (stereo not given) gave an IC50 [3] greater than 1000 nM.
